Here are results for 2 compounds from patent US20240002936A1, “USE OF BRAIN ORGANOIDS AND SINGLE CELL GENOMICS TO UNDERSTAND AND TREAT NEURODEVELOPMENTAL AND NEUROPSYCHIATRIC DISORDERS” (President and Fellows of Harvard College, priority 2020, published 2024).

The test system of test [1] is PGP1 SUV420H1 control and mutant organoids. In words: Calcium imaging of spontaneous neuronal activity in intact brain organoids. Conditions: 20 μM NBQX. Format: cell-based, human.
The subject of test [2] is human brain organoids. Format: cell-based.

As for `NS(=O)(=O)c1cccc2c1c([N+](=O)[O-])cc1[nH]c(=O)c(=O)[nH]c12` [NBQX, 2,3-dioxo-6-nitro-1,2,3,4-tetrahydrobenzo[f]quinoxaline-7-sulfonamide], the “calcium activity after blockade of excitatory synapses with NBQX, SUV420H1 mutant organoids” value in test [1] (PGP1 SUV420H1+/- mutant organoids) is given as “no calcium transients”. The “calcium activity after blockade of excitatory synapses with NBQX, control organoids” value in test [1] (PGP1 control organoids) is listed as “residual uncorrelated activity”. Further, the “network bursting upon bath application of NBQX” value in test [1] (four month organoids (128 d.i.v.)) was “abolished”.
As to `NC1=N[C@H](O)[C@H]2[C@H]3O[C@]4(O)O[C@@H]([C@@H](O)[C@@]2(N1)[C@@H]4O)[C@]3(O)CO` [TTX, tetrodotoxin], the “trains of action potentials composing network bursting, sensitivity to TTX” value in test [2] is on record as “sensitive”.
